Reference: US20240132450A1, “MODULATORS OF G PROTEIN-COUPLED RECEPTOR 88” (ACADIA Pharmaceuticals Inc., priority 2020, published 2024)
pEC50: −log10 of the molar value.

Target: hGPR88 receptor (Homo sapiens, UniProt Q9GZN0)
Experiment: hGPR88-HEK cAMP accumulation assay
Conditions: GRP88 agonist activity (EC50), HEK-293 cells expressing human recombinant GPR88, forskolin 200 nM, High/Medium/Low bands
Method: Biological Assay 1: hGPR88-HEK cAMP Accumulation Assay
Cryopreserved vials of HEK-293 cells expressing human recombinant GPR88 receptor are re-suspended in KRH assay buffer and 5 μl of cell solution is suspended in test wells at a seeding density of 2500±500 cells per well using the multidrop to provide a final reaction volume of 10 μl containing 0.5% DMSO. Assay plate is incubated for 30 min at room temperature and the reaction is terminated by addition of 5 μl of each of the cAMP detection reagents of the cAMP Gi kit (Cisbio Bioassays, 62AM9PEJ), diluted in cell lysis buffer, to each well using the multidrop in the following order: first the cAMP-d2 conjugate, then the anti-cAMP cryptate conjugate. […] Raw counts were converted to cAMP concentrations via a standard curve before EC50 and Emax determination. Data is expressed as % decrease in forskolin stimulated cAMP compared to cells treated with vehicle alone in the same buffer and on the same plate.

Sequence of hGPR88 receptor (Q9GZN0 whole entry): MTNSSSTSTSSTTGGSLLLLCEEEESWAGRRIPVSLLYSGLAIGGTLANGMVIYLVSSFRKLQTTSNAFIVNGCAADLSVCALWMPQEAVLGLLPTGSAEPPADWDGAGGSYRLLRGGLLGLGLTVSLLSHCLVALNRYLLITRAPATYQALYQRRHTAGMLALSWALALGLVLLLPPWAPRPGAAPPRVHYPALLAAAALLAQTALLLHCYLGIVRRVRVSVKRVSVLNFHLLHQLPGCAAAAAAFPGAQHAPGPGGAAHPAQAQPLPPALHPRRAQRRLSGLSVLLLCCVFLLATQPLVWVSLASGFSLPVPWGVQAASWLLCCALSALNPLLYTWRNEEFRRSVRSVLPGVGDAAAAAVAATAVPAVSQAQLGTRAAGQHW

Compound	pEC50
COCc1ccc(-c2ccc(NC(=O)C(C)(C)Oc3ccccc3F)cc2)cc1 [Example 103, 2-(2-fluorophenoxy)-N-(4′-(methoxymethyl)-[1,1′-biphenyl]-4-yl)-2-methylpropanamide]	5.30 to 6.00
COCc1ccc(-c2ccc(NC(=O)C(C)(C)Oc3ccc(C(F)(F)F)cc3)cc2)cc1 [Example 104, N-(4′-(methoxymethyl)-[1,1′-biphenyl]-4-yl)-2-methyl-2-(4-(trifluoromethyl)phenoxy)propanamide]	5.30 to 6.00
O=C(c1ccc(-c2ccc(NC(=O)C3(Oc4ccc(F)cc4)CC3)cc2)cc1)N1CCOCC1 [Example 105, 1-(4-fluorophenoxy)-N-(4′-(morpholine-4-carbonyl)-[1,1′-biphenyl]-4-yl)cyclopropane-1-carboxamide]	5.30 to 6.00
CCOc1ccc(-c2ccc(NC(=O)C3(Oc4ccc(F)cc4)CC3)cc2)cn1 [Example 106, N-(4-(6-ethoxypyridin-3-yl)phenyl)-1-(4-fluorophenoxy)cyclopropane-1-carboxamide]	5.30 to 6.00
CN(C)c1ncc(-c2ccc(NC(=O)C3(Oc4ccc(F)cc4)CC3)cc2)cn1 [Example 107, N-(4-(2-(dimethylamino)pyrimidin-5-yl)phenyl)-1-(4-fluorophenoxy)cyclopropane-1-carboxamide]	5.30 to 6.00
CN(C(=O)C(C)(C)Oc1ccc(F)cc1)c1ccc(-c2ccc(CO)cc2F)cc1 [Example 108]	5.30 to 6.00
COc1ccc(OC(C)(C)C(=O)Nc2ccc(-c3ccc(CN4CCOCC4)cc3)cc2)cc1 [Example 113]	5.30 to 6.00
COCc1ccc(-c2ccc(NC(=O)C(C)(C)Oc3ccc(F)cc3)cc2)c(F)c1 [Example 114, N-(2′-fluoro-4′-(methoxymethyl)-[1,1′-biphenyl]-4-yl)-2-(4-fluorophenoxy)-2-methylpropanamide]	5.30 to 6.00
CCOc1ccc(-c2ccc(NC(=O)C(C)(C)Oc3ccc(C#N)cc3)cc2)cn1 [Example 116, 2-(4-cyanophenoxy)-N-(4-(6-ethoxypyridin-3-yl)phenyl)-2-methylpropanamide]	5.30 to 6.00
CN(C)c1ncc(-c2ccc(NC(=O)C(C)(C)Oc3ccc(C#N)cc3)cc2)cn1 [Example 117, 2-(4-cyanophenoxy)-N-(4-(2-(dimethylamino)pyrimidin-5-yl)phenyl)-2-methylpropanamide]	5.30 to 6.00
COC(C)c1ccc(-c2ccc(NC(=O)C(C)(C)Oc3ccc(F)cc3)cc2)cc1 (centres unmarked) [Example 119, 2-(4-fluorophenoxy)-N-(4′-(1-methoxyethyl)-[1,1′-biphenyl]-4-yl)-2-methylpropanamide]	5.30 to 6.00
CN(C)c1ccc(-c2ccc(NC(=O)C3CC3c3ccccn3)cc2)cn1 (centres unmarked) [Example 125, N-(4-(6-(dimethylamino)pyridin-3-yl)phenyl)-2-(pyridin-2-yl)cyclopropane-1-carboxamide]	< 5.30
CN(C)c1ncc(-c2ccc(NC(=O)C3CC3c3ccccn3)cc2)cn1 (centres unmarked) [Example 126, N-(4-(2-(dimethylamino)pyrimidin-5-yl)phenyl)-2-(pyridin-2-yl)cyclopropane-1-carboxamide]	< 5.30
CC(C)OCc1ccc(-c2ccc(NC(=O)C(C)(C)Oc3ccc(F)cc3)cc2)cc1 [Example 131, 2-(4-fluorophenoxy)-N-(4′-(isopropoxymethyl)-[1,1′-biphenyl]-4-yl)-2-methylpropanamide]	< 5.30
CC(C)(Oc1ccc(F)cc1)C(=O)Nc1ccc(-c2ccc(COC3CC3)cc2)cc1 [Example 132, N-(4′-(cyclopropoxymethyl)-[1,1′-biphenyl]-4-yl)-2-(4-fluorophenoxy)-2-methylpropanamide]	5.30 to 6.00
COCc1ccc(-c2ccc(NC(=O)C(C)(C)Oc3ccc(F)cn3)cc2)cc1 [Example 138, 2-((5-fluoropyridin-2-yl)oxy)-N-(4′-(methoxymethyl)-[1,1′-biphenyl]-4-yl)-2-methylpropanamide]	5.30 to 6.00
COCc1ccc(-c2ccc(N(CCC#N)C(=O)C(C)(C)Oc3ccc(F)cc3)cc2)cc1 [Example 139, N-(2-cyanoethyl)-2-(4-fluorophenoxy)-N-(4′-(methoxymethyl)-[1,1′-biphenyl]-4-yl)-2-methylpropanamide]	< 5.30
CCOc1ccc(-c2ccc(NC(=O)C(C)(C)Oc3ccccn3)cc2)cn1 [Example 140, N-(4-(6-ethoxypyridin-3-yl)phenyl)-2-methyl-2-(pyridin-2-yloxy)propanamide]	5.30 to 6.00

Now from value to molecule:

pEC50	Compound
5.30 to 6.00	COCc1ccc(-c2ccc(NC(=O)C(C)(C)Oc3ccc(Cl)c(C)c3)cc2)cc1 [Example 97, 2-(4-chloro-3-methylphenoxy)-N-(4′-(methoxymethyl)-[1,1′-biphenyl]-4-yl)-2-methylpropanamide]
5.30 to 6.00	COCc1ccc(-c2ccc(NC(=O)C(C)(C)Oc3cccc(OC)c3)cc2)cc1 [Example 98, N-(4′-(methoxymethyl)-[1,1′-biphenyl]-4-yl)-2-(3-methoxyphenoxy)-2-methylpropanamide]
5.30 to 6.00	COCc1ccc(-c2ccc(NC(=O)C(C)(C)Oc3c(F)cccc3F)cc2)cc1 [Example 99, 2-(2,6-difluorophenoxy)-N-(4′-(methoxymethyl)-[1,1′-biphenyl]-4-yl)-2-methylpropanamide]
5.30 to 6.00	COCc1ccc(-c2ccc(NC(=O)C(C)(C)Oc3cccc(C(F)(F)F)c3)cc2)cc1 [Example 100, N-(4′-(methoxymethyl)-[1,1′-biphenyl]-4-yl)-2-methyl-2-(3-(trifluoromethyl)phenoxy)propanamide]
5.30 to 6.00	COCc1ccc(-c2ccc(NC(=O)C(C)(C)Oc3ccccc3OC)cc2)cc1 [Example 101, N-(4′-(methoxymethyl)-[1,1′-biphenyl]-4-yl)-2-(2-methoxyphenoxy)-2-methylpropanamide]
5.30 to 6.00	COCc1ccc(-c2ccc(NC(=O)C(C)(C)Oc3ccc(C(N)=O)cc3)cc2)cc1 [Example 102, 4-((1-((4′-(methoxymethyl)-[1,1′-biphenyl]-4-yl)amino)-2-methyl-1-oxopropan-2-yl)oxy)benzamide]
> 6.00	COCc1ccc(-c2ccc(N(C)C(=O)C(C)(C)Oc3ccc(F)cc3)cc2)c(F)c1 [Example 115, N-(2′-fluoro-4-(methoxymethyl)-[1,1′-biphenyl]-4-yl)-2-(4-fluorophenoxy)-N,2-dimethylpropanamide]
> 6.00	CC(C)(Oc1ccc(C#N)cc1)C(=O)Nc1ccc(-c2ccc(CN3CCOCC3)cc2)cc1 [Example 124, 2-(4-cyanophenoxy)-2-methyl-N-(4′-(morpholinomethyl)-[1,1′-biphenyl]-4-yl)propenamide]
> 6.00	COCc1ccc(-c2ccc(NC(=O)C3(Oc4ccc(F)cc4)CCC3)cc2)cc1 [Example 127, 1-(4-fluorophenoxy)-N-(4′-(methoxymethyl)-[1,1′-biphenyl]-4-yl)cyclobutane-1-carboxamide]
> 6.00	COCc1ccc(-c2ccc(NC(=O)C(C)(C)Oc3ccc(C)cc3)cc2)cc1 [Example 128, N-(4′-(methoxymethyl)-[1,1-biphenyl]-4-yl)-2-methyl-2-(p-tolyloxy) propenamide]
> 6.00	O=C(Nc1ccc(-c2ccc(CN3CCOCC3)cc2)cc1)C1(Oc2ccc(F)cc2)CC1 [Example 129, 1-(4-fluorophenoxy)-N-(4′-(morpholinomethyl)-[1,1′-biphenyl]-4-yl)cyclo propane-1-carboxamide]
